{
  "source": "PubChem BioAssay (NCI)",
  "experiment_in_all_cases": "growth of human tumour cells (NCI), 384-well format",
  "key": {"[1]": {"test_system": "SF-268 CNS"}, "[2]": {"test_system": "MOLT-4 leukemia"}, "[3]": {"test_system": "SF-539 CNS"}, "[4]": {"test_system": "MDA-MB-231 breast"}, "[5]": {"test_system": "SR leukemia"}, "[6]": {"test_system": "MDA-MB-435 melanoma"}, "[7]": {"test_system": "IGROV1 ovarian"}, "[8]": {"test_system": "SK-MEL-5 melanoma"}, "[9]": {"test_system": "DU-145 prostate"}, "[10]": {"test_system": "HCT-15 colon"}, "[11]": {"test_system": "UACC-62 melanoma"}, "[12]": {"test_system": "OVCAR-3 ovarian"}, "[13]": {"test_system": "MCF7 breast"}, "[14]": {"test_system": "OVCAR-8 ovarian"}, "[15]": {"test_system": "ACHN renal"}, "[16]": {"test_system": "MALME-3M melanoma"}, "[17]": {"test_system": "RPMI-8226 leukemia"}, "[18]": {"test_system": "U251 glioblastoma"}, "[19]": {"test_system": "EKVX NSCLC"}, "[20]": {"test_system": "NCI-H322M lung"}, "[21]": {"test_system": "LOX IMVI melanoma"}, "[22]": {"test_system": "A549 NSCLC"}, "[23]": {"test_system": "UO-31 renal"}, "[24]": {"test_system": "NCI-H226 lung"}, "[25]": {"test_system": "NCI-H460 NSCLC"}, "[26]": {"test_system": "KM12 colon"}, "[27]": {"test_system": "UACC-257 melanoma"}, "[28]": {"test_system": "T-47D breast"}, "[29]": {"test_system": "SW-620 colon"}, "[30]": {"test_system": "M14 melanoma"}},
  "note": "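Abbreviation: GI50, concentration required for 50% inhibition of growth. TGI marks complete inhibition of growth.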",
  "data": [
    {"smiles": "O=C1Cc2cc(C(=O)NC3C[C@H]4CC[C@@H](C3)N4S(=O)(=O)CC3CCN(CCCC(F)(F)F)CC3)c(Cl)cc2N1", "note": "(some centres undefined)", "values": [
      {"measurement": "GI50", "setting": "[1]", "result": "> 100", "unit": "µM"},
      {"measurement": "TGI", "setting": "[1]", "result": "> 100", "unit": "µM"},
      {"measurement": "GI50", "setting": "[2]", "result": "> 67", "unit": "µM"},
      {"measurement": "TGI", "setting": "[2]", "result": "> 100", "unit": "µM"},
      {"measurement": "GI50", "setting": "[3]", "result": "> 100", "unit": "µM"},
      {"measurement": "TGI", "setting": "[3]", "result": "> 100", "unit": "µM"},
      {"measurement": "GI50", "setting": "[4]", "result": "> 100", "unit": "µM"},
      {"measurement": "TGI", "setting": "[4]", "result": "> 100", "unit": "µM"},
      {"measurement": "GI50", "setting": "[5]", "result": 38.7, "unit": "µM"},
      {"measurement": "TGI", "setting": "[5]", "result": 99.3, "unit": "µM"},
      {"measurement": "GI50", "setting": "[6]", "result": "> 100", "unit": "µM"},
      {"measurement": "TGI", "setting": "[6]", "result": "> 100", "unit": "µM"},
      {"measurement": "GI50", "setting": "[7]", "result": "> 57.9", "unit": "µM"},
      {"measurement": "TGI", "setting": "[7]", "result": "> 100", "unit": "µM"},
      {"measurement": "GI50", "setting": "[8]", "result": "> 43.5", "unit": "µM"},
      {"measurement": "TGI", "setting": "[8]", "result": "> 57.5", "unit": "µM"},
      {"measurement": "GI50", "setting": "[9]", "result": "> 51.2", "unit": "µM"},
      {"measurement": "TGI", "setting": "[9]", "result": "> 80", "unit": "µM"},
      {"measurement": "GI50", "setting": "[10]", "result": "> 46.3", "unit": "µM"},
      {"measurement": "TGI", "setting": "[10]", "result": "> 64.5", "unit": "µM"},
      {"measurement": "GI50", "setting": "[11]", "result": "> 100", "unit": "µM"},
      {"measurement": "TGI", "setting": "[11]", "result": "> 100", "unit": "µM"},
      {"measurement": "GI50", "setting": "[12]", "result": "> 45", "unit": "µM"},
      {"measurement": "TGI", "setting": "[12]", "result": "> 63.5", "unit": "µM"},
      {"measurement": "GI50", "setting": "[13]", "result": "> 100", "unit": "µM"},
      {"measurement": "TGI", "setting": "[13]", "result": "> 100", "unit": "µM"},
      {"measurement": "GI50", "setting": "[14]", "result": "> 44.1", "unit": "µM"},
      {"measurement": "TGI", "setting": "[14]", "result": "> 61.9", "unit": "µM"},
      {"measurement": "GI50", "setting": "[15]", "result": "> 50.1", "unit": "µM"},
      {"measurement": "TGI", "setting": "[15]", "result": "> 77.9", "unit": "µM"},
      {"measurement": "GI50", "setting": "[16]", "result": "> 100", "unit": "µM"},
      {"measurement": "TGI", "setting": "[16]", "result": "> 100", "unit": "µM"},
      {"measurement": "GI50", "setting": "[17]", "result": "> 45.6", "unit": "µM"},
      {"measurement": "TGI", "setting": "[17]", "result": "> 59.3", "unit": "µM"},
      {"measurement": "GI50", "setting": "[18]", "result": "> 100", "unit": "µM"},
      {"measurement": "TGI", "setting": "[18]", "result": "> 100", "unit": "µM"},
      {"measurement": "GI50", "setting": "[19]", "result": "> 100", "unit": "µM"},
      {"measurement": "TGI", "setting": "[19]", "result": "> 100", "unit": "µM"},
      {"measurement": "GI50", "setting": "[20]", "result": "> 100", "unit": "µM"},
      {"measurement": "TGI", "setting": "[20]", "result": "> 100", "unit": "µM"},
      {"measurement": "GI50", "setting": "[21]", "result": 19.2, "unit": "µM"},
      {"measurement": "TGI", "setting": "[21]", "result": 33.8, "unit": "µM"},
      {"measurement": "GI50", "setting": "[22]", "result": "> 51", "unit": "µM"},
      {"measurement": "TGI", "setting": "[22]", "result": "> 81", "unit": "µM"},
      {"measurement": "GI50", "setting": "[23]", "result": 23.2, "unit": "µM"},
      {"measurement": "TGI", "setting": "[23]", "result": 47.5, "unit": "µM"},
      {"measurement": "GI50", "setting": "[24]", "result": "> 100", "unit": "µM"},
      {"measurement": "TGI", "setting": "[24]", "result": "> 100", "unit": "µM"},
      {"measurement": "GI50", "setting": "[25]", "result": "> 100", "unit": "µM"},
      {"measurement": "TGI", "setting": "[25]", "result": "> 100", "unit": "µM"},
      {"measurement": "GI50", "setting": "[26]", "result": "> 100", "unit": "µM"},
      {"measurement": "TGI", "setting": "[26]", "result": "> 100", "unit": "µM"},
      {"measurement": "GI50", "setting": "[27]", "result": "> 100", "unit": "µM"},
      {"measurement": "TGI", "setting": "[27]", "result": "> 100", "unit": "µM"},
      {"measurement": "GI50", "setting": "[28]", "result": 60.3, "unit": "µM"},
      {"measurement": "TGI", "setting": "[28]", "result": "> 100", "unit": "µM"},
      {"measurement": "GI50", "setting": "[29]", "result": "> 58.1", "unit": "µM"},
      {"measurement": "TGI", "setting": "[29]", "result": "> 100", "unit": "µM"},
      {"measurement": "GI50", "setting": "[30]", "result": "> 100", "unit": "µM"}
    ]}
  ]
}
